Test results: US20060217418A1, “Substituted alkyl amido piperidines” (priority 2001, published 2006)

Target: T1, rat MCH1 receptor (Rattus norvegicus, UniProt P97639)
T1 construct: operatively linked to DNA encoding the rat MCH1 receptor so as to permit expression thereof; expressed in transfected cells; host or cells: Human embryonic kidney Peak rapid 293 (Peakr293) cells, transient calcium phosphate transfection, membranes
Assay: Radioligand binding assay at cloned rat MCH1 receptor ([3H]Compound A)
Details: cloned rat MCH1, Peakr293 cell membranes, 0.08 nM [3H]Compound A, 25° C., 90 minutes; read-out: Ki(MCH-1)

T1 sequence (P97639 whole entry): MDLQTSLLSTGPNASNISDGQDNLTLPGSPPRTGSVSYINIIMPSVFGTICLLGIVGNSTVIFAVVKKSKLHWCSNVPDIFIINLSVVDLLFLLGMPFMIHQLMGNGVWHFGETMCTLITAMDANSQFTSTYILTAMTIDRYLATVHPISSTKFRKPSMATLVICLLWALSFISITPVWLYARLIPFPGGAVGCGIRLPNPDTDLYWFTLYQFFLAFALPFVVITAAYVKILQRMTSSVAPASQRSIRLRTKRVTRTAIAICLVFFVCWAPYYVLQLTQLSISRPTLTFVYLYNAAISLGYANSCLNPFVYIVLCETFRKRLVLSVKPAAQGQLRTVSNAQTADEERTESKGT

In order of falling Ki:
1. CCCC(=O)Nc1ccc(OC)c(C2CCN(CCCNC(=O)C(c3ccccc3)c3ccccc3)CC2)c1 [Example 22]  136 nM
2. CCC(=O)Nc1cccc(C2CCN(CCCNC(=O)C(C)c3ccc(F)cc3)CC2)c1 (stereo not shown) [Example 64, 2-(4-FLUOROPHENYL)-N-(3-{4-[3-PROPIONYLAMINO)PHENYL]-1-PIPERIDINYL} PROPYL) PROPANAMIDE]  70.7 nM
3. O=C(CC(c1ccccc1)c1ccccc1)NCCCN1CCC(c2cccc(NC(=O)C3CC3)c2)CC1 [Example 151, N-[3-(1-{3-[(3,3-DIPHENYLPROPANOYL)AMINO]PROPYL}-4-PIPERIDINYL)PHENYL] CYCLOPROPANECARBOXAMIDE]  62 nM
4. CC(C)C(=O)Nc1cccc(C2CCN(CCCNC(=O)C(C)c3ccc(Cl)cc3)CC2)n1 (stereo not shown) [Example 90, 2-(4-CHLOROPHENYL)-N-(3-{4-[6-(ISOBUTYRYLAMINO)-2-PYRIDINYL]-1-PIPERIDINYL} PROPYL)PROPANAMIDE]  52.2 nM
5. CCCC(=O)Nc1cc(C2CCN(CCCNC(=O)C(C)(C)c3ccc(Cl)cc3)CC2)ccc1F [Example 110]  50.4 nM
6. CC(C)C(=O)Nc1ccc(F)c(C2CCN(CCCNC(=O)C(F)(F)c3ccccc3)CC2)c1 [Example 136]  48.7 nM
7. Cc1ccc(NC(=O)C(C)C)cc1C1CCN(CCCNC(=O)C(F)(F)c2ccccc2)CC1 [Example 124]  39.9 nM
8. CC(C)C(=O)Nc1cccc(C2CCN(CCCNC(=O)C(C)c3ccc(Cl)cc3)CC2)c1 (stereo not shown) [Example 37, 2-(4-CHLOROPHENYL)-N-(3-{4-[3-(ISOBUTYRYLAMINO)PHENYL]-1-PIPERIDINYL} PROPYL)PROPANAMIDE]  19.5 nM
9. CCCC(=O)Nc1cccc(C2CCN(CCCNC(=O)C3(c4ccc(Cl)cc4)CCC3)CC2)c1 [Example 106, N-(3-{4-[3-(BUTYRYLAMINO)PHENYL]-1-PIPERIDINYL}PROPYL)-1-(4-CHLOROPHENYL) CYCLOBUTANECARBOXAMIDE]  19 nM
10. O=C(Nc1cccc(C2CCN(CCCNC(=O)C3(c4ccc(Cl)cc4Cl)CC3)CC2)c1)C1CC1 [Example 117, N-[3-(4-{3-[(CYCLOPROPYLCARBONYL)AMINO]PHENYL}-1-PIPERIDINYL) PROPYL]-1-(2,4-DICHLOROPHENYL)CYCLOPROPANECARBOXAMIDE]  17.9 nM
11. CC(C)C(=O)Nc1cccc(C2CCN(CCCNC(=O)C3(c4ccc(Cl)cc4)CCCC3)CC2)c1 [Example 31, 1-(4-CHLOROPHENYL)-N-(3-{4-[3-(ISOBUTYRYLAMINO)PHENYL]-1-PIPERIDINYL} PROPYL)CYCLOPENTANECARBOXAMIDE]  8.2 nM
12. CC(=O)Nc1cccc(C2CCN(CCCNC(=O)C3(c4ccc(Cl)cc4)CCCC3)CC2)c1 [Example 78, N-(3-{4-[3-(ACETYLAMINO)PHENYL]-1-PIPERIDINYL}PROPYL)-1-(4-CHLOROPHENYL) CYCLOPENTANECARBOXAMIDE]  6.7 nM
13. CCCC(=O)Nc1cccc(C2CCN(CCCNC(=O)C(c3ccccc3)(c3ccccc3)c3ccccc3)CC2)c1 [Example 97]  3.6 nM
14. Cc1ccc(NC(=O)C(C)C)cc1C1CCN(CCCNC(=O)C(c2ccccc2)(c2ccccc2)c2ccccc2)CC1 [Example 94]  3.1 nM
15. CC(=O)Nc1cccc(C2CCN(CCCNC(=O)C(c3ccccc3)(c3ccccc3)c3ccccc3)CC2)c1 [Example 105, N-(3-{4-[3-(ACETYLAMINO)PHENYL]-1-PIPERIDINYL}PROPYL)-2,2,2-TRIPHENYL ACETAMIDE]  2.8 nM
16. CC(C)C(=O)Nc1ccc(F)c(C2CCN(CCCNC(=O)C3(c4ccc(Cl)cc4)CCCCC3)CC2)c1 [Example 130]  2.6 nM
17. CC(C)C(=O)Nc1cccc(C2CCN(CCCNC(=O)C(c3ccc(Cl)cc3)c3ccc(Cl)cc3)CC2)n1 [Example 50]  1.9 nM
18. CCCC(=O)Nc1cc(C2CCN(CCCNC(=O)C(c3ccc(Cl)cc3)c3ccc(Cl)cc3)CC2)ccc1F [Example 108]  1.9 nM
19. CCCC(=O)Nc1cccc(C2CCN(CCCNC(=O)C(c3ccc(F)cc3)c3ccc(F)cc3)CC2)c1 [Example 27, N-{3-[1-(3-{[2,2-BIS(4-FLUOROPHENYL)ACETYL]AMINO}PROPYL)-4-PIPERIDINYL] PHENYL}BUTANAMIDE]  1.1 nM
